This experiment concerns Burkholderia solanacearum. In kind it is cell-based. Particulars: 100 μg/ml undialyzed protein, 1 hour, room temperature.

This is an account of results in patent US9809808B2, “Antimicrobial agents” (KATHOLIEKE UNIVERSITEIT LEUVEN K.U. LEUVEN R&D, priority 2008, dated 2017).

Where two headings read alike, the source gives them in different places.

For the molecule “phiKZgp144: SEQ ID NO: 1: unmodified modular endolysin originating from Pseudomonas aeruginosa phage φKZ [reference compound]”, the “Reduction [%] (relative inactivation)” value is 0%.

B1: POLY-gp144: SEQ ID NO: 35: phiKZgp144 (SEQ ID NO: 1) with N-terminal peptide stretch KRKKRKKRK (SEQ ID NO: 11) (protein)
chain: MGSKRKKRKKRKKVLRKGDRGDEVCQLQTLLNLCGYDVGKPDGIFGNNTFNQVVKFQKDNCLDSDGIVGKNTWAELFSKYSPPIPYKTIPMPTANKSRAAATPVMNAVENATGVRSQLLLTFASIESAFDYEIKAKTSSATGWFQFLTGTWKTMIENYGMKYGVLTDPTGALRKDPRISALMGAELIKENMNILRPVLKREPTDTDLYLAHFFGPGAARRFLTTGQNELAATHFPKEAQANPSIFYNKDGSPKTIQEVYNLMDGKVAAHRK
modifications: POLY-gp144
With B1, for the setting “listed as POLYKZ144”, the “Reduction [%] (relative inactivation)” value is 99-99.9%.
